Where a name gives a salt, the structure may show the parent alone. Read-outs that look alike come from different tables or passages of the source.
Legend:
[1] = target: T1, hHint1 (Homo sapiens (Human), UniProt P49773); assay: Isothermal titration calorimetry (ITC) of hHint1-ligand complexes; format: binding; conditions: for Kd / ΔG / ΔH / −TΔS: ITC, hHint1; for Kd: 20° C.
Protocol: Isothermal Titration Calorimetry (ITC) ITC experiments were conducted on a MicroCal Auto-ITC200 system (GE Healthcare life sciences). […] To determine the dissociation constant of stock concentration (300-400 uM) of inhibitors was titrated with 15-20 uM of Hint1. Twenty injections of ligand were injected (injection volume 2 ul) into the protein cell. […] The in vitro binding affinity of the new series was evaluated of analogues for hHint1 using isothermal calorimetry (ITC).

[2] = Solubility (aqueous buffers, water, DMSO); format: physicochemical
Description: Replacement of the 5′-oxygen atom in the acyl-sulfamate with a nitrogen affords an acyl-sulfamide backbone, which increases the pKa of the backbone NH by 2-3 units.

[3] = system: mice; conditions: icv, cited from earlier work
[4] = system: ICR mice; assay: Spared nerve injury (SNI), von Frey mechanical threshold testing; format: in vivo, mouse; conditions: for SNI-induced mechanical hypersensitivity, injection on day 7 following injury: 1 nmol intrathecally 7 days post spared nerve injury; for SNI-induced mechanical hypersensitivity, pretreatment: 1 nmol intrathecally prior to spared nerve injury
Protocol: Male and Female ICR mice (25-30 g) were given 1 nmol of TpGc prior to (Panel A) or 7 days post (Panel B) spared nerve injury. A separate cohort (Panel C) of male ICR mice (25-50 g) were given 1 nmol of compound 7 intrathecally both prior to and 7 days post spared nerve injury. All cohorts were evaluated with Von Frey mechanical threshold testing.
Male and female ICR mice were given 1 nmol of HINT1 inhibitor TpGc or 7 intrathecally either immediately prior to or 7 days following induction of neuropathic pain via spared nerve injury (Decosterd, 2000). Briefly, an incision is made into the leg of the mouse directly above the branching of the sciatic nerve. The peroneal and tibial branches of the nerve are ligated and cut while the sural branch is left intact, leading to a localized hypersensitivity on the lateral portion of the hindpaw. Von Frey mechanical testing was performed prior to surgery and for up to 7 days post surgery.

[5] = target: T1, hHint1; conditions: ITC, cited from earlier work
[6] = target: T1, hHint1; assay: Fluorescence assay of hHint1 activity at fixed saturating substrate concentration; format: biochemical
Description: The effect of a non-hydrolyzable nucleotide analog Bio-AMS was compared with compound 3 on the activity of hHint1 using a fluorescence assay described previously.^3
Isothermal titration calorimetry (ITC) was used to investigate the nature of non-covalent interactions on the inhibitory activity of Bio-AMS on hHint1.

[7] = system: ICR mice; assay: Inhibition of morphine inhibition of NMDA-evoked scratching and biting behavior; format: in vivo, mouse; conditions: male mice, intrathecal pretreatment before morphine and NMDA
Protocol: Male ICR mice (25-30) were given TpGc (10 nmol) 10 minutes before morphine sulfate (10 nmol) intrathecally. After a period of 10 minutes, NMDA was injected intrathecally and scratching and biting behaviors were quantified. The MPE % was calculated using morphine alone as the positive control.
Male mice were given intrathecal treatment of either morphine or morphine+a HINT1 inhibitor. They were then given an intrathecal injection of NMDA and scratching and biting behaviors were counted for 1 minute. […]

[8] = system: mice; conditions: single icv administration, CCI mice, cited from earlier work
[9] = system: ICR mice; assay: Development of morphine analgesic tolerance, tail flick assay; format: in vivo, mouse; conditions: HINT1 inhibitor+morphine intrathecally for 3 days, morphine challenge on Day 4
[10] = data adapted from Garzon et al.

T1 sequence (P49773 whole entry): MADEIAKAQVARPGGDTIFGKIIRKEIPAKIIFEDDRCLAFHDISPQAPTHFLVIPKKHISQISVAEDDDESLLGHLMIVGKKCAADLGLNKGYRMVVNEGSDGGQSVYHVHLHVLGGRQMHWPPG

Structure (SMILES)	Kd [1]	SNI-induced mechanical hypersensitivity, injection on day 7 following injury [4]	SNI-induced mechanical hypersensitivity, pretreatment [4]	ED50, attenuation of morphine's inhibition of NMDA-evoked behavior [7]	morphine potency and efficacy after tolerance development protocol [9]	ΔG [1]	ΔH [1]	−TΔS [1]	stock solutions easily prepared in aqueous buffers [2]	other results
Nc1nc2c(ncn2C2OC(COS(=O)(=O)NC(=O)CCc3c[nH]c4ccccc34)C(O)C2O)c(=O)[nH]1 (single isomer, unassigned) [Compound 4, 5′-O—[N-(3-Indolepropionic acid)sulfamoyl] Guanosine Triethylammonium Salt]	810 ± 110 nM									
Nc1nc2c(ncn2[C@@H]2O[C@H](COC(=O)NCCc3c[nH]c4ccccc34)[C@@H](O)[C@H]2O)c(=O)[nH]1 [Compound 3, guanosine-5′-tryptamine carbamate]		transient reversal of mechanical hypersensitivity	sustained attenuation of SNI-induced mechanical hypersensitivity	0.61 nM	equivalent potency and efficacy compared to the saline pre-treatment					aqueous solubility ([2]; in words): poor solubility; effect on development of morphine tolerance ([3]; listed as TpGc): reduced the development of acute tolerance; effect on morphine analgesia / antinociception ([3]; listed as TpGc): potentiated morphine-evoked antinociception; effect on development of morphine tolerance [3]: rescues and prevents the development of NMDAR mediated morphine tolerance; effect on morphine analgesia / antinociception [3]: enhances morphine analgesia; ΔG [5, 10]: -4.1 ± 2.0 kcal/mol; ΔH [5, 10]: -13.54 ± 1.00 kcal/mol; −TΔS [5, 10]: 9.54 ± 4.17 kcal/mol; Kd ([5]; data adapted from previously published result by Garzon et al.): 3650 ± 1000 nM; IC50 [6]: 25500 ± 6000 nM; mechanical allodynia [8]: reduce mechanical allodynia in animals for several days; mechanical allodynia ([8]; listed as TpGc): significant attenuation of mechanical allodynia that persisted for several days
Nc1nc2c(ncn2[C@@H]2O[C@H](COS(=O)(=O)NC(=O)CCc3c[nH]c4ccccc34)C(O)[C@@H]2O)c(=O)[nH]1 (stereo partly drawn) [Compound 4, 5′-O—[N-(3-Indolepropionic acid)sulfamoyl] Guanosine Triethylammonium Salt]						-8.46 ± 0.4 kcal/mol	-16.51 ± 0.17 kcal/mol	8.05 ± 0.88 kcal/mol	up to 5 mM	fold increase in binding affinity over compound 3 ([1]; compared with compound 3): 4.5 fold
CCCC(=O)NS(=O)(=O)OC[C@H]1O[C@@H](n2cnc3c(=O)[nH]c(N)nc32)C(O)C1O (stereo partly drawn) [Compound 5]	2900 ± 250 nM					-5.81 ± 1.0 kcal/mol	-13.59 ± 1.12 kcal/mol	7.71 ± 0.27 kcal/mol	up to 5 mM	decrease in the enthalpy of binding ([1]; compared with compound 4): ~2 kcal/mol; fold greater dissociation constant in comparison to 4 ([1]; compared with compound 4): 3-4 fold
Nc1nc2c(ncn2[C@@H]2O[C@H](CNS(=O)(=O)NC(=O)CCc3c[nH]c4ccccc34)C(O)C2O)c(=O)[nH]1 (stereo partly drawn) [Compound 6, 5′-N—[N-(3-Indolepropionic acid)sulfamoyl] Guanosine Triethylammonium Salt]	920 ± 70 nM					-8.24 ± 0.12 kcal/mol	-14.75 ± 0.12 kcal/mol	6.57 ± 0.17 kcal/mol	up to 5 mM	
O=C(CCc1c[nH]c2ccccc12)NS(=O)(=O)OC[C@H]1O[C@@H](n2cnc3c2ncn2ccnc32)[C@@H](O)C1O (stereo partly drawn) [Compound 7, 5′-O—[N-(3-Indolepropionic acid)sulfamoyl]EthenoAdenosine Triethylammonium Salt]		transient reversal that resolved at 4 hours post injection	did not lead to an attenuation of pain behavior	0.47 nM	equivalent potency and efficacy compared to the saline pre-treatment				≤ 20 mM	
